Source: PMC11571215, “Optimization of Antiproliferative Properties of Triimine Copper(II) Complexes” (Journal of Medicinal Chemistry, 2024)

Experiments:
[1] = test system: chicken embryo chorioallantoic membrane; experiment: Ex-ovo CAM assay: in vivo toxicity and angiogenic potential; conditions: IC50 concentrations; for angiogenic potential (tertiary veins): 24 h, normalized to DMSO; for in vivo toxicity (embryo death): chicken embryo
From the text: The ex-ovo Chorioallantoic Membrane (CAM) assay has become a preclinical model of choice for assessing the cytotoxicity of Cu(II) complexes and in vivo angiogenesis.[38] The CAM is an extraembryonic membrane formed by mesodermal layers, highly vascularized despite being compromised, making it ideal for studying angiogenesis and antiangiogenesis in response to biomolecules and drugs.[97] […] In these assays, highly vascularized regions surrounded by O-rings on the chorioallantoic membrane of chicken embryos were studied. […] Eight embryos were used as biological replicates. Images were taken immediately after exposure to the complexes and control (0 h) and 24 h later. The values were normalized to the number of tertiary veins after exposure to the DMSO control and are represented in Figures 19 and S25.
To assess the angiogenic potential of the copper complexes, an ex-ovo CAM (chick chorioallantoic membrane) in vivo model using chicken eggs was performed. Fertilized eggs were opened, and the embryos and blood vessels were stabilized for 24 h in an incubator at 37 °C in perforated individual weighing boxes. After incubation, 4 silicone O-rings were placed on areas with a high number of blood vessels. […] The area limited by each O-ring was photographed immediately after the addition of the complexes and after 24 and 48 h of incubation at 37 °C. The images were captured with a digital USB microscope camera (Opti-Tekscope OT-V1). Image analysis was performed using ImageJ software.

[2] = test system: normal human primary dermal fibroblasts; experiment: MTS cell viability assay, normal fibroblasts; format: cell-based; conditions: 48 h of exposure
Experimental: The antiproliferative effect of the Cu(II) complexes in tumor and healthy cell lines was assessed through the MTS assay, a colorimetric method that is widely used to evaluate cellular viability, specifically mitochondrial viability.[53],[54] Cellular viability was determined after 48 h exposure to a concentration range (0.1–50 μM) of Cu(II) complexes in three tumor cell lines. […] Additionally, the viability of healthy primary dermal fibroblasts was performed as a comparison of the complexes’ antiproliferative effects in normal cells.
Cellular viability assays were performed using HCT116, HCT116-DoxR, and A2780 cancer cell lines as well as normal human primary fibroblasts. Cells were seeded at a density of 0.75 × 10^5 cells/mL in 96-well plates and incubated at 37 °C with 5% (v/v) CO2 for 24 h. After this incubation period, the copper complexes were accurately weighed and immediately dissolved in 100% (v/v) dimethyl sulfoxide (DMSO). Subsequently, the complexes were diluted to the final concentration using a cell culture medium. The culture medium in each well was replaced with fresh medium containing varying concentrations of the complexes (ranging from 0.01 to 50 μM). Negative controls contained culture medium with 0.1% (v/v) DMSO, and positive controls contained 0.4 μM Dox.
After an additional 48 h of incubation under the same conditions, cellular viability was assessed using the CellTiter 96 Aqueous One Solution Cell Proliferation Assay kit (Promega, Madison, USA). […] The absorbance of formazan, measured at 490 nm in a microplate reader (Tecan Infinite M200, Tecan, Männedorf, Switzerland), is directly proportional to the number of viable cells.[104]
The cell viability versus concentration graphics were analyzed using Prism 8 software (GraphPad) to determine the half-maximal inhibitory concentration (IC50) of each complex for the respective cell line. Additionally, the selective index (SI) for each complex was calculated by dividing the IC50 of human fibroblasts by the IC50 values of the tested cancer cell lines.

[3] = test system: HCT116-DoxR 3D spheroids; experiment: CellTox Green cytotoxicity assay in 3D spheroids; format: cell-based, human; conditions: 4.8 μM Cu1a or 5.8 μM Cu1b; 3, 24, 48, 72 h
Experimental: Moreover, over time a detachment of death cells from the spheroids is observed (with green cells in the periphery of the outer region of the spheroids more clearly visualized at 72 h of exposure; Figure 5B and Supplementary Figure S16B,C).
HCT116-DoxR cells were seeded at 5 × 10^4 cells/mL in super low Attachment 96-well plates (NunclonSphera U-Shaped-Bottom Microplate, Thermo Fisher Scientific, Waltham, MA, USA) and incubated at 37 °C in a humidified atmosphere with 5% (v/v) CO2, to allow spheroids formation and growth.[60],[105] To perform the cell viability study, two methods were used: the MTS assay and the CellTox assay.
For the CellTox assay, HCT116DoxR spheroids grown for 6 to 9 days were used. […] CellTox Green dye is an asymmetric cyanine dye that enters cells with compromised membrane integrity and binds to DNA, which enhances its fluorescence. […] Therefore, higher levels of fluorescence are associated with a higher number of death cells.[106] […] After 3, 24, 48, and 72 h of incubation, fluorescence images were acquired with Ti–U Eclipse inverted microscope (Nikon), with a FITC filter (excitation at 465–495 nm, in the blue region, and emission at 515–555 nm, in the green region).
The software ImageJ was used for fluorescence quantification in which the Corrected Total Cell Fluorescence (CTCF, eq 6) was determined. […]

[4] = test system: HCT116-DoxR cells; experiment: Mitochondrial membrane potential (JC-1, flow cytometry); format: cell-based, human; conditions: 48 h; complexes at IC50, Dox 6 μM, Cis 5 μM; normalized to DMSO
From the text: Changes in membrane potential can be measured and represent an essential parameter, indicating the functional state of the mitochondria. For this analysis, the lipophilic cationic probe 5,5′,6,6′-tetrachloro-1,1′,3,3′-tetraethylbenzimidazolylcarbocyanine iodide (JC-1) was used, allowing the evaluation of depolarization or hyperpolarization of the mitochondrial membrane.[72] In healthy cells, JC-1 accumulates inside the electronegative mitochondria as aggregates (red fluorescence) when the membrane potential is positively charged (hyperpolarized).[71] However, when depolarization of the mitochondrial membrane potential occurs, the JC-1 probe will accumulate outside of the mitochondria in its monomeric form (green fluorescence), therefore causing a decrease in the ratio of JC-1 aggregate/monomer fluorescence intensity.[61],[71] […] Subsequently, the cells were stained with the JC-1 probe and subjected to flow cytometry analysis to confirm potential alterations in the mitochondrial membrane potential induced by the complexes. […]
The mitochondrial membrane potential (ΔΨM) was evaluated by using the JC-1 Mitochondrial Membrane Potential Assay Kit (Abnova Corporation, Walnut, California, USA). […] The samples were then analyzed in the Attune Acoustic Focusing Flow Cytometer (Life Technologies, Carlsbad, CA, USA) and results were processed with Attune Cytometric software.

[5] = test system: pUC18 plasmid DNA (pDNA); experiment: Plasmid DNA interaction and cleavage (gel electrophoresis); conditions: 24 h; for pDNA cleavage / isoform change: 100 ng pUC18, 5–100 μM complex, 37 °C; for pDNA cleavage in presence of NaN3 scavenger: 50 μM complex + 50 μM NaN3, 37 °C; for pDNA cleavage in presence of H2O2: 50 μM complex + 100 μM H2O2, 37 °C
Experimental: The procedure involved exposing 100 ng of pDNA (pUC18) to increasing concentrations of complexes Cu1a and Cu1b (5, 25, 50, 75, and 100 μM), which were incubated at 37 °C for 24 h.
The sodium azide (NaN3) scavenger, capable of quenching singlet oxygen (^−1O2), was used for this purpose.[93] Additionally, hydrogen peroxide (H2O2) was employed as a well-known positive control for DNA cleavage through oxidative mechanisms in the presence of ROS.[71]
Experiments were conducted with 100 ng of pUC18 DNA incubated with increasing concentrations of Cu1a and Cu1b complexes (5, 25, 50, 75, and 100 μM) or in their absence (pUC18 only or with 0.1% DMSO (v/v), both negative controls). For this assay, positive control was included, containing pUC18 DNA (100 ng) previously incubated with the HindIII enzyme to linearize the plasmid in the last 2 h of incubation. […] Electrophoresis was performed in 0.8% (w/v) agarose gel (NZYtech) in TAE 1× buffer at a constant voltage of 70 V for 80 min. The electrophoresis gel image was acquired using the Gel Doc EZ Imager (Bio-Rad), and band quantification was performed using ImageJ software.
The pDNA (100 ng) was exposed to reactive oxygen species (ROS) scavenging agents, namely, sodium azide (NaN3) at 50 μM and hydrogen peroxide (H2O2) at 100 μM. […] Controls were also included where 100 ng of pUC18 was exposed to 0.1% (v/v) DMSO, and the activity of the HindIII restriction enzyme (linearized plasmid control) for 24 h. All the samples were adjusted to a final volume of 20 μL and incubated for 24 hs at 37 °C. […] The electrophoresis gel image was acquired in Gel Doc EZ Imager (Bio-Rad) and band quantification was performed using ImageJ software.

| Structure (SMILES) | angiogenic potential (tertiary veins) [1] | in vivo toxicity (embryo death) [1] | IC50 [2] | cell death in spheroids (CellTox Green fluorescence) [3] | JC-1 red/green fluorescence ratio (aggregate/monomer) [4] | pDNA cleavage / isoform change [5] | pDNA cleavage in presence of NaN3 scavenger [5] | pDNA cleavage in presence of H2O2 [5] |
| --- | --- | --- | --- | --- | --- | --- | --- | --- |
| [Cl][Cu-3]12([Cl])[n+]3ccccc3-c3cc(-c4cccc5ccccc45)cc([n+]31)-c1cccc[n+]12 [Cu1a] | did not show significant pro- or antiangiogenic properties | do not show in vivo toxicity in a chicken embryo | 9.26 ± 0.9 µM | the increase of cell death | approximately 0.79 | an increase in the circular form (N) was observed compared to negative control with the simultaneous decrease of the supercoiled isoform | an increase in the supercoiled isoform and a reduction in the nicked isoform | pDNA cleavage increased compared to H2O2 alone |
| [Cl][Cu-3]12([Cl])[n+]3ccccc3-c3cc(-c4ccc5ccccc5c4)cc([n+]31)-c1cccc[n+]12 [Cu1b] | did not show significant pro- or antiangiogenic properties | do not show in vivo toxicity in a chicken embryo | 13.3 ± 1 µM | the increase of cell death | 0.88 | a decrease in supercoiled forms and an increase in the intensity of the circular isoform at concentrations of 25 and 50 μM | an increase in the supercoiled isoform and a decrease in the nicked isoform | a complete disappearance of pDNA isoforms is observed |
